One data set has as its system transgenic Tg6799 mice. In words: Circular platform test of reference memory. It counts as in vivo. Particulars: cotinine 2.5 mg/kg via gavage for two months. How it is done:
Mice of 2.5 months of age were treated or not with cotinine 2.5 mg/kg via gavage for two months and after tested in the circular platform test. In this test the number of errors to escape a 69 cm diameter circular platform containing 16 holes along its perimeter was determined in a single daily trial (300 s maximum) over 8 days of testing. Only one hole leads to an escape box, which remains the same for any given animal. To control for olfactory cures, the escape hole was relocated after each animal's trial and the maze cleaned with a dilute vinegar solution. Tg, transgenic Tg6799 mice, NT, control wild type littermate mice. N=11 mice by group.

The target of another data set is T1, Aβ1-42 peptide (Homo sapiens, UniProt P05067).
T1 construct: Aβ1-42 peptide was obtained from American Peptide; purchased American Peptide (Sunnyvale, Calif., USA)
As to the kind of experiment: Aβ oligomerization, Western blot and dot-blot immunoassays (6E10, A11 antibodies). In kind it is biochemical. The procedure: Aβ1-42 peptide was obtained from American Peptide (Sunnyvale, Calif., USA). To obtain Aβ1-42 oligomer solutions, we used a previously described protocol that results in solutions containing stable oligomers, but not fibrils for several days (Necula et al. (2007)). The lyophilized peptide was dissolved in 1 volume of 1 mM NaOH and then diluted in phosphate-buffered saline (PBS) pH 7.4 to the desired concentrations.
For the analysis of the inhibition of Aβ1-42 oligomerization/aggregation reaction, we incubated Aβ (100 μM, pH 7.4) prepared in the absence or presence of ascending concentrations of cotinine (100, 200 and 500 μM) for 7 days at 25° C. and analyzed on days 2, 5, 6 and 7. Aβ oligomerization was analyzed by Western blot and dot-blot immunoassays using antibody 6E10, which preferentially recognizes the monomeric form of Aβ and the A11 antibody that specifically recognizes the oligomeric form of the peptide but not Aβ monomers, protofibrils or fibrils.
The western blot analysis was performed as described before (Necula et al. (2007)). 10 μl-aliquots of each oligomerization reaction containing Aβ alone or Aβ plus cotinine were mixed with 5×SDS sample buffer and loaded in a 4-20% Tris-HCl gel and analyzed by Western blot using the 6E10 antibody.
The dot-blot analysis was performed as described (Necula et al. (2007)). 4-8 μl of the oligomerization mixture was applied onto nitrocellulose membranes and allowed to dry, after which the membranes were blocked for 1 h at room temperature with 10% skim milk in TBS containing 0.05% Tween 20 (TBS-T). […] After being washed with TBS-T, membranes were incubated with horseradish peroxidase-conjugated secondary antibody (1:5000) for 1 h, and visualized using enhanced chemiluminescence (Dura ECL detection kit, Pharmacia Biotech, Piscataway, N.J., USA), scanned on the Kodak Image Station 440CF, and analyzed using Molecular Imaging Software version 4.0 (Rochester, N.Y., USA) and NIH ImageJ software. The Aβ solutions for each particular day were analyzed in the same membrane and developed simultaneously. […]
(A western blot detects proteins with antibodies after separation by electrophoresis.)

The conditions of data set [1]: in vivo; cited from earlier work.
A further data set concerns Arc. In words: BDNF-induced Arc expression in primary cortical neurons, Western blot. In kind it is cell-based. The following applies: BDNF plus cotinine 2 h, 7 DIV cortical neurons. An excerpt:
Then cells were washed with PBS and disrupted by sonication in lysis buffer. Cell extracts were separated by SDS-PAGE and analyzed by Western blot with antibodies against Arc and β-tubulin, which was used as a control (FIG. 16B). The histogram represents the mean±SEM of experiments performed in triplicate. […] BDNF, brain-derived neurotrophic factor.

A further data set relates to cortical cells. In words: Survival of cortical cells exposed to cotinine alone, MTT assay. In kind it is cell-based, rat. The following applies: various concentrations of cotinine, 48 hours. How it is done:
Cortical cells were subjected to various concentrations of cotinine and cell viability was assessed after 48 hours by MTT assay (see FIG. 1). Statistical significance of the differences in MTT values was assessed by one-way ANOVA with Tukey post-test. ns, not significant difference with (P>0.05).
A general note: Tetrazolium assays rely on reduction of a dye to a coloured formazan, in cell work by metabolically active cells.

T1 sequence (P05067 672-713 limits assumed): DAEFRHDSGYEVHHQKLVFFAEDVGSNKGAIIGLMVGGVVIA

`CN1C(=O)CC[C@H]1c1cccnc1` [cotinine]: the “reference memory in the circular platform” value in the data set with transgenic Tg6799 mice is “prevents the loss of reference memory”. Also, on Aβ1-42 peptide (100 μM Aβ1-42, cotinine 100, 200, 500 μM, 5 and 7 days at 25° C.), the “levels of Aβ monomers (Western blot, 6E10)” value is “increased the levels of Aβ monomers”. Further, at Aβ1-42 peptide (100 μM Aβ1-42, cotinine 100, 200, 500 μM, days 2 and 6 at RT), the “concentration of Aβ oligomers (A11 dot-blot)” value is “decreased the concentration of Aβ oligomers”. In addition, the “6E10 immunoreactivity (dot-blot)” value at Aβ1-42 peptide (100 μM Aβ1-42, increasing cotinine, days 2 and 6 at RT) was “higher immunoreactivity for the 6E10 antibody”. In data set [1], the half-life is 10 to 24 h. In the data set on Arc, the “BDNF-induced expression of Arc” value is on record as “enhances the BDNF-induced expression of Arc”. Besides, the “survival of cortical neurons exposed to cotinine alone” value in the data set with cortical cells is recorded as “not Affected”.

Broadly, the half-life is how long it takes for the measured level to halve.

The values are drawn from patent publication US10238641B2, “Materials and methods for diagnosis, prevention and/or treatment of stress disorders and conditions associated with A-beta peptide aggregation” (The United States of America as represented by the …, priority 2008, dated 2019).
